From patent US12263248B2, “Compounds and compositions for intracellular delivery of therapeutic agents” (ModernaTX, Inc., priority 2018, dated 2025)
Read-outs that look alike come from different tables or passages of the source.

Tests used:
[1] = Pharmacokinetics of lipids in mice; type: in vivo; design: AUC / AUCall Mean: concentration or dose not given beside the values; settings: mouse; for AUC: read-out: AUCall Mean
Method: FIGS. 45A and 45B are a pair of graphs illustrating pharmacokinetics of lipids of the disclosure in mice. Mice were administered compositions comprising Compound 50 (FIG. 45A) or Compound 301 (FIG. 45B), in nanoparticle compositions containing DSPC and PEG 1.

[2] = test system: hEPO mRNA; assay: hEPO expression and pharmacokinetic parameters in non-human primates; type: in vivo, Cynomolgus monkeys
Method: The tolerability and efficacy of nanoparticle compositions to non-human primates was also investigated using a sample formulation including Compound 18. The formulation was prepared according to the standard MC3 formulation described above and included an hEPO mRNA. Primates were administered a single dose of 0.05 (Group 1), 0.3 (Group 2), or 1.0 (Group 3) mpk via intravenous infusion for 60 minutes. Three primates were administered each dose. Expression of hEPO was measured prior to dosing and at 2, 6, 24, 48, and 96 hours post-treatment (Table 26). Table 28 includes levels of indicators of complement activation, while Table 29 includes cytokine induction data.
The tolerability and efficacy of nanoparticle compositions to non-human primates was also investigated using sample formulations including Compounds 18, 25, 26, and 48 and MC3 to determine if these compounds are differentiated in terms of protein expression. The formulations were prepared according to the standard MC3 formulation described above and included an hEPO mRNA. Table 30 includes details of the compositions tested, while Table 31 summarizes the relative expression of Luc and hEPO mRNA in mice and rats. Expression was measured 6 hours after administration.
As is evident in the figure, expression was highest 6 hours post administration for all formulations tested, and was highest for those formulations including Compound 18.
NHP studies: Nonhuman primate studies were conducted using naïve cynomolgus monkeys (cynos), 2-4 years old, weighing 2-6 kg. No treatment randomization or blinding methods were used for any of the animal studies. Sample sizes were determined by the resource equation method. For injection, mRNA-LNPs in phosphate buffered saline (PBS) were administered by 60-minute intravenous infusion using a temporary indwelling catheter inserted in a peripheral vein.
hEPO ELISA for NHP samples: Human Epo levels were measured using a human erythropoietin immunoassay. Cytokines levels were measured using a non-human primate cytokine kit. […]

[3] = test system: hEPO mRNA; assay: hEPO expression and cytokine induction after intravenous administration to mice; type: in vivo; settings: for hEPO expression and average total flux compared with MC3: Table 12 comparison, in words; for hEPO concentrations compared with MC3 formulations / hEPO expression 3 h / Average hEPO concentration (pg/ml, 6 h) / Cytokine expression IL-6 (6 h) / Cytokine expression IP-10 (6 h) / hEPO expression 6 h / Fold increase in hEPO concentration relative to MC3 / hEPO expression 24 h: mice, 0.5 mpk; for hEPO concentrations compared with MC3 formulations: i.v., 3, 6 and 24 hours; for hEPO expression 3 h / Average hEPO concentration (pg/ml, 6 h) / Cytokine expression IL-6 (6 h) / Cytokine expression IP-10 (6 h) / hEPO expression 6 h / Fold increase in hEPO concentration relative to MC3 / hEPO expression 24 h: intravenous; for Average hEPO concentration (pg/ml, 6 h) / Cytokine expression IL-6 (6 h) / Cytokine expression IP-10 (6 h) / hEPO expression 6 h / Fold increase in hEPO concentration relative to MC3: 6 h; for Fold increase in hEPO concentration relative to MC3: Table 12
Method: The expression of hEPO and cytokine induction in mice intravenously administered a nanoparticle composition at a dose of 0.5 mpk were measured at 3, 6, and 24 hours. […] The expression of hEPO in mice intramuscularly administered a nanoparticle composition from Table 1B at a dose of 0.01 mpk were measured at 3, 6, and 24 hours.
Blood collection and analysis for hEPO. Blood was collected from mice or rats via the tail vein and hEPO concentrations were determined using a hEPO ELISA assay.

[4] = ALT and AST after intravenous administration to rat (Table 19A); type: in vivo
Method: Table 19A summarizes the hEPO expression, IP-10 induction, liver and spleen levels, and alanine aminotransferase (ALT) and aspartate aminotransferase (AST) measured upon intravenous administration of formulations including Compounds 48, 49, and 50 to rat at 0.2 and 2 mpk and hEPO mRNA. hEPO concentrations were measured 6 hours after administration, while cytokine induction and liver and spleen levels were measured 48 hours after administration. hEPO and IP-10 concentrations are presented in pg/ml, while liver levels are provided in ng/g. ALT and AST levels are presented in international units.

[5] = Liver, * = 2 terminal datapoints estimation
[6] = Spleen, * = 2 terminal datapoints estimation
[7] = hEPO, 0.01 mpk i.v. infusion, non-human primates

CCCCCCCCCCCOC(=O)CCCCCN(CCO)CCCCCCCC(=O)OC(CCCCCCCC)CCCCCCCC [Compound 25, Heptadecan-9-yl 8-((2-hydroxyethyl)(6-oxo-6-(undecyloxy)hexyl)amino)octanoate]
Cmax ([1]; Liver): 17900 ng/mL
HL [1, 5]: 6.9 h
AUC ([1]; Liver): 89200 ng·h/mL
Tmax ([1]; Liver, read-out: Tmax): 1 h
Cmax ([1]; Plasma): 37500 ng/mL
HL ([1]; Plasma): 2.3 h
AUC ([1]; Plasma): 35400 ng·h/mL
Tmax ([1]; Plasma, read-out: Tmax): 0.5 h
Cmax ([1]; Spleen): 20400 ng/mL
HL [1, 6]: 15.2 h
AUC ([1]; Spleen): 259000 ng·h/mL
Tmax ([1]; Spleen, read-out: Tmax): 4 h
AUC Lipid/MC3 Ratio [2, 7]: 3.3

CCCCCCCCCOC(=O)CCCCCCCN(CCO)CCCCCCCC(=O)OC(CCCCCCCC)CCCCCCCC [Compound 18, Heptadecan-9-yl 8-((2-hydroxyethyl)(8-(nonyloxy)-8-oxooctyl)amino)octanoate]
hEPO expression and average total flux compared with MC3 [3]: outperform MC3
hEPO concentrations compared with MC3 formulations [3]: higher hEPO concentrations than MC3 formulations
hEPO expression 3 h [3]: 3e+06 pg/mL
Average hEPO concentration (pg/ml, 6 h) [3]: 3.38e+06 pg/mL
Cytokine expression IL-6 (6 h) [3]: 10.16 pg/mL
Cytokine expression IP-10 (6 h) [3]: 299.93 pg/mL
hEPO expression 6 h [3]: 3.38e+06 pg/mL
Fold increase in hEPO concentration relative to MC3 [3]: 1.85
hEPO expression 24 h [3]: 1.8e+06 pg/mL
Cmax ([1]; Liver): 6050 ng/mL
HL [1, 5]: 5.8 h
AUC ([1]; Liver): 16900 ng·h/mL
Tmax ([1]; Liver, read-out: Tmax): 1 h
Cmax ([1]; Plasma): 44200 ng/mL
HL ([1]; Plasma): 1.2 h
AUC ([1]; Plasma): 61800 ng·h/mL
Tmax ([1]; Plasma, read-out: Tmax): 0.5 h
Cmax ([1]; Spleen): 3770 ng/mL
HL [1, 6]: 10.6 h
AUC ([1]; Spleen): 39400 ng·h/mL
Tmax ([1]; Spleen, read-out: Tmax): 4 h
hEPO concentration ([2]; 0.05 mpk i.v. infusion, 2 h): 142588 pg/mL
hEPO concentration ([2]; 0.05 mpk i.v. infusion, 6 h): 379362 pg/mL
hEPO concentration ([2]; 0.05 mpk i.v. infusion, 24 h): 103055 pg/mL
hEPO concentration ([2]; 0.05 mpk i.v. infusion, 48 h): 25382 pg/mL
hEPO concentration ([2]; 0.05 mpk i.v. infusion, 96 h): 2084 pg/mL
hEPO concentration ([2]; 0.05 mpk i.v. infusion, Predose): 1000 pg/mL
hEPO concentration ([2]; 0.3 mpk i.v. infusion, 2 h): 363272 pg/mL
hEPO concentration ([2]; 0.3 mpk i.v. infusion, 6 h): 341285 pg/mL
hEPO concentration ([2]; 0.3 mpk i.v. infusion, 24 h): 148789 pg/mL
hEPO concentration ([2]; 0.3 mpk i.v. infusion, 48 h): 57095 pg/mL
hEPO concentration ([2]; 0.3 mpk i.v. infusion, 96 h): 6095 pg/mL
hEPO concentration ([2]; 0.3 mpk i.v. infusion, Predose): 1000 pg/mL
hEPO concentration ([2]; 1.0 mpk i.v. infusion, 2 h): 312006 pg/mL
hEPO concentration ([2]; 1.0 mpk i.v. infusion, 6 h): 502663 pg/mL
hEPO concentration ([2]; 1.0 mpk i.v. infusion, 24 h): 467598 pg/mL
hEPO concentration ([2]; 1.0 mpk i.v. infusion, 48 h): 175953 pg/mL
hEPO concentration ([2]; 1.0 mpk i.v. infusion, 96 h): 24795 pg/mL
hEPO concentration ([2]; 1.0 mpk i.v. infusion, Predose): 1000 pg/mL
exposure of hEPO protein relative to the MC3 LNP control ([2]; NHP, 0.01 mg/kg, 60 minute intravenous infusion): five-fold higher
AUC Lipid/MC3 Ratio [2, 7]: 6.0
hEPO mRNA expression ([2]; naive cynomolgus monkeys, i.v. 0.01 mpk, 60 minutes infusion): highest
hEPO levels compared with MC3 formulations ([2]; non-human primates, comparable doses): higher than those measured upon administration of comparable doses of MC3 formulations

CCCCC/C=C\C/C=C\CCCCCCCCN(CCO)CCCCCCCC(=O)OC(CCCCCCCC)CCCCCCCC [Compound 6, Heptadecan-9-yl 8-((2-hydroxyethyl)((9Z,12Z)-octadeca-9,12-dien-1-yl)amino)octanoate]
hEPO expression and average total flux compared with MC3 [3]: outperform MC3
hEPO concentrations compared with MC3 formulations [3]: higher hEPO concentrations than MC3 formulations
hEPO expression 3 h [3]: 2.31e+06 pg/mL
Average hEPO concentration (pg/ml, 6 h) [3]: 3.17e+06 pg/mL
Cytokine expression IL-6 (6 h) [3]: 10.15 pg/mL
Cytokine expression IP-10 (6 h) [3]: 116.66 pg/mL
hEPO expression 6 h [3]: 3.17e+06 pg/mL
Fold increase in hEPO concentration relative to MC3 [3]: 1.73
hEPO expression 24 h [3]: 1.11e+06 pg/mL

CCCCCCCCC(CC)OC(=O)CCCCCCCN(CCO)CCCCCCCC(=O)OC(CCCCCCCC)CCCCCCCC (stereo not shown) [Compound 49, heptadecan-9-yl 8-((2-hydroxyethyl)(8-oxo-8-(undecan-3-yloxy)octyl)amino)octanoate]
ALT ([4]; 0.2 mpk): 54.0 international units
AST ([4]; 0.2 mpk): 99.4 international units
ALT ([4]; 2 mpk): 77.8 international units
AST ([4]; 2 mpk): 132.4 international units

CCCCCCCCCOC(=O)CCCN(CCO)CCCCCCCC(=O)OC(CCCCCCCC)CCCCCCCC [Compound 26, Heptadecan-9-yl 8-((2-hydroxyethyl)(4-(nonyloxy)-4-oxobutyl)amino) octanoate]
AUC Lipid/MC3 Ratio [2, 7]: 1.3

CCCCCCCCC(CCC)OC(=O)CCCCCCCN(CCO)CCCCCCCC(=O)OC(CCCCCCCC)CCCCCCCC (stereo not shown) [Compound 50, dodecan-4-yl 8-((8-(heptadecan-9-yloxy)-8-oxooctyl)(2-hydroxyethyl)amino)octanoate]
ALT ([4]; 0.2 mpk): 59.2 international units
AST ([4]; 0.2 mpk): 143.2 international units
ALT ([4]; 2 mpk): 78.8 international units
AST ([4]; 2 mpk): 158.4 international units

CCCCCCCCC(C)OC(=O)CCCCCCCN(CCO)CCCCCCCC(=O)OC(CCCCCCCC)CCCCCCCC (stereo not shown) [Compound 48, decan-2-yl 8-((8-(heptadecan-9-yloxy)-8-oxooctyl)(2-hydroxyethyl)amino)octanoate]
ALT ([4]; 0.2 mpk): 59.6 international units
AST ([4]; 0.2 mpk): 140.8 international units
ALT ([4]; 2 mpk): 66.0 international units
AST ([4]; 2 mpk): 131.2 international units
AUC Lipid/MC3 Ratio [2, 7]: 0.9

CCCCC/C=C\C/C=C\CCCCCCCCC(CCCCCCCC/C=C\C/C=C\CCCCC)OC(=O)CCCN(C)C [MC3, DLin-MC3-DMA, reference compound]
hEPO expression 3 h [3]: 1.57e+06 pg/mL
Average hEPO concentration (pg/ml, 6 h) [3]: 1.83e+06 pg/mL
Cytokine expression IL-6 (6 h) [3]: 19.85 pg/mL
Cytokine expression IP-10 (6 h) [3]: 117.94 pg/mL
hEPO expression 6 h [3]: 1.83e+06 pg/mL
Fold increase in hEPO concentration relative to MC3 [3]: 1
hEPO expression 24 h [3]: 810000 pg/mL
AUCall Mean ([1]; Liver): 1,410,000 hr * ng/mL
Cmax Mean ([1]; Liver): 33,000 ng/mL
Tmax ([1]; Liver): 24 h
HL [1, 5]: 52.5* hr
AUCall Mean ([1]; Plasma): 69,100 hr * ng/mL
Cmax Mean ([1]; Plasma): 28,900 ng/mL
HL ([1]; Plasma): 8.4 h
Tmax ([1]; Plasma): 0.5 h
AUCall Mean ([1]; Spleen): 787,000 hr * ng/mL
Cmax Mean ([1]; Spleen): 21,200 ng/mL
Tmax ([1]; Spleen): 8 h
HL [1, 6]: 33.3* hr
ALT ([4]; 0.2 mpk): 63.6 international units
AST ([4]; 0.2 mpk): 134.8 international units
ALT ([4]; 2 mpk): 79.6 international units
AST ([4]; 2 mpk): 139.0 international units
AUC0-t Mean [2, 7]: 284 ng·h/mL
AUC Lipid/MC3 Ratio [2, 7]: 1.0
Cmax Mean [2, 7]: 14.1 ng/mL
Tmax Mean [2, 7]: 8 h
